# Test results taken from the supplement of paper PMC10307832.
# Experiments:
# Test in all cases: relative viability (nuclei count vs DMSO), 5 days (fraction); higher = more cells survive
# [1] = compound: CN(C)CC1=CC(=CC=C1)N=C(C2=CC=CC=C2)C3=C(NC4=C3C=CC(=C4)C(=O)N(C)C)O + C[C@@H](Oc1cc(-c2cnn(C3CCNCC3)c2)cnc1N)c1c(Cl)ccc(F)c1Cl [Crizotinib] (partner 1 µM)
# How it was run: (§1)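 Lung cancer cell lines were pin-tool dosed in 1536-well plates on the day after seeding, with either a lone drug or a fixed anchor-drug dose plus five library-drug doses (not always all listed) in √10 steps. Nuclei were counted on 4× images after 5 days. Relative viability is the ratio of treated-well to vehicle-well nuclei counts, with each value a median of duplicate plates.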
# [2] = compound: CN(C)CC1=CC(=CC=C1)N=C(C2=CC=CC=C2)C3=C(NC4=C3C=CC(=C4)C(=O)N(C)C)O + CS(=O)(=O)CCNCc1ccc(-c2ccc3ncnc(Nc4ccc(OCc5cccc(F)c5)c(Cl)c4)c3c2)o1 [Lapatinib] (partner 2 µM)
# How it was run: as §1
# [3] = compound: CN(C)CC1=CC(=CC=C1)N=C(C2=CC=CC=C2)C3=C(NC4=C3C=CC(=C4)C(=O)N(C)C)O + Nc1ncn([C@H]2C[C@H](O)[C@@H](CO)O2)c(=O)n1 [Decitabine] (partner 2 µM)
# How it was run: as §1
# [4] = compound: CN(C)CC1=CC(=CC=C1)N=C(C2=CC=CC=C2)C3=C(NC4=C3C=CC(=C4)C(=O)N(C)C)O + Cc1cc(Nc2cc(N3CCN(C)CC3)nc(Sc3ccc(NC(=O)C4CC4)cc3)n2)n[nH]1 [Tozasertib] (partner 0.1 µM)
# How it was run: as §1
cell line,measurement,setting,value
PC-14,relative viability,[1]; first compound 0.08 µM,0.948
same,relative viability,[1]; first compound 0.253 µM,0.885
same,relative viability,[1]; first compound 0.8 µM,0.842
same,relative viability,[1]; first compound 2.53 µM,0.786
same,relative viability,[1]; first compound 8 µM,1.01
same,relative viability,[2]; first compound 0.08 µM,0.33
same,relative viability,[2]; first compound 0.253 µM,0.264
same,relative viability,[2]; first compound 0.8 µM,0.38
same,relative viability,[2]; first compound 2.53 µM,0.313
same,relative viability,[2]; first compound 8 µM,0.311
same,relative viability,[3]; first compound 0.08 µM,0.254
same,relative viability,[3]; first compound 0.253 µM,0.214
same,relative viability,[3]; first compound 0.8 µM,0.213
same,relative viability,[3]; first compound 2.53 µM,0.236
same,relative viability,[3]; first compound 8 µM,0.25
same,relative viability,[4]; first compound 0.08 µM,0.564
same,relative viability,[4]; first compound 0.253 µM,0.604
same,relative viability,[4]; first compound 0.8 µM,0.618
same,relative viability,[4]; first compound 2.53 µM,0.531
same,relative viability,[4]; first compound 8 µM,0.649
RERF-LC-KJ,relative viability,[1]; first compound 0.08 µM,0.855
same,relative viability,[1]; first compound 0.253 µM,0.771
same,relative viability,[1]; first compound 0.8 µM,0.707
same,relative viability,[1]; first compound 2.53 µM,0.887
same,relative viability,[1]; first compound 8 µM,0.754
same,relative viability,[2]; first compound 0.08 µM,0.917
same,relative viability,[2]; first compound 0.253 µM,0.882
same,relative viability,[2]; first compound 0.8 µM,0.834
same,relative viability,[2]; first compound 2.53 µM,0.793
same,relative viability,[2]; first compound 8 µM,0.859
same,relative viability,[3]; first compound 0.08 µM,0.746
same,relative viability,[3]; first compound 0.253 µM,0.644
same,relative viability,[3]; first compound 0.8 µM,0.801
same,relative viability,[3]; first compound 2.53 µM,0.671
same,relative viability,[3]; first compound 8 µM,0.713
same,relative viability,[4]; first compound 0.08 µM,0.494
same,relative viability,[4]; first compound 0.253 µM,0.493
same,relative viability,[4]; first compound 0.8 µM,0.536
same,relative viability,[4]; first compound 2.53 µM,0.523
same,relative viability,[4]; first compound 8 µM,0.408
SK-LU-1,relative viability,[1]; first compound 0.08 µM,1
same,relative viability,[1]; first compound 0.253 µM,1.08
same,relative viability,[1]; first compound 0.8 µM,0.982
same,relative viability,[1]; first compound 2.53 µM,0.825
same,relative viability,[1]; first compound 8 µM,0.613
same,relative viability,[2]; first compound 0.08 µM,0.814
same,relative viability,[2]; first compound 0.253 µM,0.878
same,relative viability,[2]; first compound 0.8 µM,0.831
same,relative viability,[2]; first compound 2.53 µM,0.747
same,relative viability,[2]; first compound 8 µM,0.836
same,relative viability,[3]; first compound 0.08 µM,0.624
same,relative viability,[3]; first compound 0.253 µM,0.653
same,relative viability,[3]; first compound 0.8 µM,0.646
same,relative viability,[3]; first compound 2.53 µM,0.578
same,relative viability,[3]; first compound 8 µM,0.677
same,relative viability,[4]; first compound 0.08 µM,0.262
same,relative viability,[4]; first compound 0.253 µM,0.327
same,relative viability,[4]; first compound 0.8 µM,0.33
same,relative viability,[4]; first compound 2.53 µM,0.351
same,relative viability,[4]; first compound 8 µM,0.295
SK-MES-1,relative viability,[1]; first compound 0.08 µM,0.946
same,relative viability,[1]; first compound 0.253 µM,1.03
same,relative viability,[1]; first compound 0.8 µM,0.956
same,relative viability,[1]; first compound 2.53 µM,0.883
same,relative viability,[1]; first compound 8 µM,0.939
same,relative viability,[2]; first compound 0.08 µM,0.53
same,relative viability,[2]; first compound 0.253 µM,0.531
same,relative viability,[2]; first compound 0.8 µM,0.49
same,relative viability,[2]; first compound 2.53 µM,0.426
same,relative viability,[2]; first compound 8 µM,0.443
same,relative viability,[3]; first compound 0.08 µM,0.392
same,relative viability,[3]; first compound 0.253 µM,0.351
same,relative viability,[3]; first compound 0.8 µM,0.4
same,relative viability,[3]; first compound 2.53 µM,0.374
same,relative viability,[3]; first compound 8 µM,0.39
same,relative viability,[4]; first compound 0.08 µM,0.846
same,relative viability,[4]; first compound 0.253 µM,0.944
same,relative viability,[4]; first compound 0.8 µM,0.892
same,relative viability,[4]; first compound 2.53 µM,0.849
same,relative viability,[4]; first compound 8 µM,0.824
SW 1573,relative viability,[1]; first compound 0.08 µM,0.842
same,relative viability,[1]; first compound 0.253 µM,0.854
same,relative viability,[1]; first compound 0.8 µM,0.672
same,relative viability,[1]; first compound 2.53 µM,0.866
same,relative viability,[1]; first compound 8 µM,0.794
same,relative viability,[2]; first compound 0.08 µM,1.1
same,relative viability,[2]; first compound 0.253 µM,1.24
same,relative viability,[2]; first compound 0.8 µM,1.13
same,relative viability,[2]; first compound 2.53 µM,1.08
same,relative viability,[2]; first compound 8 µM,0.955
same,relative viability,[3]; first compound 0.08 µM,0.496
same,relative viability,[3]; first compound 0.253 µM,0.46
same,relative viability,[3]; first compound 0.8 µM,0.659
same,relative viability,[3]; first compound 2.53 µM,0.562
same,relative viability,[3]; first compound 8 µM,0.573
same,relative viability,[4]; first compound 0.08 µM,0.292
same,relative viability,[4]; first compound 0.253 µM,0.172
same,relative viability,[4]; first compound 0.8 µM,0.149
same,relative viability,[4]; first compound 2.53 µM,0.176
same,relative viability,[4]; first compound 8 µM,0.152
UMC-11,relative viability,[1]; first compound 0.08 µM,0.62
same,relative viability,[1]; first compound 0.253 µM,0.711
same,relative viability,[1]; first compound 0.8 µM,0.662
same,relative viability,[1]; first compound 2.53 µM,0.468
same,relative viability,[1]; first compound 8 µM,0.588
same,relative viability,[2]; first compound 0.08 µM,1.1
same,relative viability,[2]; first compound 0.253 µM,0.963
same,relative viability,[2]; first compound 0.8 µM,0.969
same,relative viability,[2]; first compound 2.53 µM,0.891
same,relative viability,[2]; first compound 8 µM,0.846
same,relative viability,[3]; first compound 0.08 µM,0.724
same,relative viability,[3]; first compound 0.253 µM,0.633
same,relative viability,[3]; first compound 0.8 µM,0.693
same,relative viability,[3]; first compound 2.53 µM,0.546
same,relative viability,[3]; first compound 8 µM,0.611
same,relative viability,[4]; first compound 0.08 µM,0.202
same,relative viability,[4]; first compound 0.253 µM,0.192
same,relative viability,[4]; first compound 0.8 µM,0.216
same,relative viability,[4]; first compound 2.53 µM,0.183
same,relative viability,[4]; first compound 8 µM,0.216
